Marks after values point to notes of the source that are not given here.
How the values were obtained:
[1] = test system: ischemia-reperfusion model; assay: Cardiac function evaluation (left ventricular end-diastolic pressure) in rat ischemia-reperfusion model; format: in vivo; details: for left ventricle end-diastolic pressure: male SD rats, LAD occlusion 30 min then reperfusion, 30 mg/kg per day oral in corn oil, 1 week before and 4 weeks after operation, mean ± standard error; for effect on elevation of the end-diastolic pressure (cardiac function), in words: rat ischemia-reperfusion model, 30 mg/kg per day oral, vs. control group
Description: (§1) Male SD rats (9-week-old, Japan SLC Inc.) were divided into four groups. Each rat was anesthetized with pentobarbital sodium (35-45 mg/kg, i.p.), and fixed at the dorsal position. A tracheal tube was orally inserted into the airway, artificial respiration was performed by an artificial respirator for small animals, and the medial wall of the thorax was opened to expose the heart. In three groups, the left anterior descending artery (LAD) was obstructed for 30 min with a surgical needle with a thread. At this time, an electrocardiogram was measured via an amplifier for electrocardiogram, and the presence or absence of occlusion was confirmed based on the changes in the ST electrical potential and cardiac muscle color. An ischemia-reperfusion model was prepared by reperfusing the blood flow after 30 min from the occlusion. Thereafter, in all groups, the thorax was closed, sutured, and disinfected with a veterinary Isodine solution.
(§2) The following samples were administered to each group for 1 week before the above-mentioned operation and 4 weeks after the operation (total 5 weeks).
(§3) Group for which occlusion treatment was performed, and oxidized coenzyme Q10 dissolved in corn oil was orally administered at a dosage of 30 mg/kg per day based on the amount of oxidized coenzyme Q10
(§4) Group for which occlusion treatment was performed, and […] dissolved in corn oil was orally administered at a dosage of 30 mg/kg per day based on the amount of reduced coenzyme Q10
After measuring the body weight on the next day of the final administration, the rats were fixed at the dorsal position under pentobarbital sodium (25-35 mg/kg, i.p.) anesthesia, and a mirror catheter was inserted into the right carotid artery. After confirmation of the stable condition, the left ventricle internal pressure wave pattern was led to a biological electric amplifier to enlarge same, and the left ventricular end-diastolic pressure (LVEDP) was measured.

rats = details: 1200 mg/kg/day consecutive administration for 52 weeks; cited from earlier work
[2] = test system: ischemia-reperfusion model; assay: Heart weight (body weight ratio) in rat ischemia-reperfusion model; format: in vivo; details: for body weight ratio of heart weight: left atrium / body weight ratio of heart weight: left ventricle / body weight ratio of heart weight: right atrium / body weight ratio of heart weight: right ventricle: male SD rats, ischemia-reperfusion, 30 mg/kg per day oral in corn oil, 5 weeks, average; for effect on increase in heart weight (edema), in words: rat ischemia-reperfusion model, 30 mg/kg per day oral, vs. control group
Description: as §1, §2, §3, §4
After cardiac function evaluation, the animals were euthanized by dislocation of cervical spine under anesthesia, and the heart was removed. The right atrium weight, left atrium weight, right ventricle weight, left ventricle weight and overall weight of the heart (weight of both atria+weight of both ventricles) were measured. For evaluation, the body weight ratio of the right atrium weight, the body weight ratio of the left atrium weight, the body weight ratio of the right ventricle weight and the body weight ratio of the left ventricle weight were calculated.

[3] = Absorbability evaluation: total coenzyme Q10 in plasma and heart by HPLC; details: male SD rats, 100 mg/kg oral in soybean oil once a day for 4 weeks; average, N=3
Description: Male SD rats (5-week-old, Japan SLC Inc.) were each orally administered with soybean oil (control group), oxidized coenzyme Q10 (100 mg/kg) dissolved in soybean oil (oxidized coenzyme Q10 group) and reduced coenzyme Q10 (containing 1 wt % of oxidized coenzyme Q10; 100 mg/kg) dissolved in soybean oil (reduced coenzyme Q10 group) once a day for 4 consecutive weeks (each group N=3). After completion of the administration, blood samples were taken and the heart was removed, and the total amount of coenzyme Q10 (total amount of oxidized coenzyme Q10 and reduced coenzyme Q10) in plasma and heart was quantified by HPLC according to a conventional method.

| SMILES | left ventricle end-diastolic pressure [1] | effect on elevation of the end-diastolic pressure (cardiac function), in words [1] | toxic influence in chronic toxicity test (rats) | body weight ratio of heart weight: left atrium [2] | body weight ratio of heart weight: left ventricle [2] | body weight ratio of heart weight: right atrium [2] | body weight ratio of heart weight: right ventricle [2] | effect on increase in heart weight (edema), in words [2] | total coenzyme Q10 concentration in heart [3] | total coenzyme Q10 concentration in plasma [3] |
| --- | --- | --- | --- | --- | --- | --- | --- | --- | --- | --- |
| COC1=C(OC)C(=O)C(C/C=C(\C)CC/C=C(\C)CC/C=C(\C)CC/C=C(\C)CC/C=C(\C)CC/C=C(\C)CC/C=C(\C)CC/C=C(\C)CC/C=C(\C)CCC=C(C)C)=C(C)C1=O [oxidized coenzyme Q10, reference compound] | 8.3 ± 0.7 mmHg | did not provide an ameliorating effect | did not show a toxic influence | 0.081 | 1.823 | 0.135 | 0.498 | suppressed increase in the heart weight in all parts | – | – |
| COc1c(O)c(C)c(C/C=C(\C)CC/C=C(\C)CC/C=C(\C)CC/C=C(\C)CC/C=C(\C)CC/C=C(\C)CC/C=C(\C)CC/C=C(\C)CC/C=C(\C)CCC=C(C)C)c(O)c1OC [reduced coenzyme Q10] | 5.7 ± 0.4 mmHg | significant suppression of elevation of the end-diastolic pressure | – | 0.089 | 1.879 | 0.146 | 0.508 | suppressed increase in the heart weight in all parts | 9.33 µg/mL | 0.39* μg/ml |

Reference: patent US20090246185A1, “CARDIAC DYSFUNCTION-AMELIORATING AGENT OR CARDIAC FUNCTION-MAINTAINING AGENT” (KANEKA CORPORATION, priority 2006, published 2009)
